Legend:
[1] = tested on: α-isomaltosyl-transferring enzyme; test: Action of the purified C11 enzyme on saccharide substrates (saccharide composition by HPLC); format: biochemical, Bacillus globisporus C11; details: for yield of cyclotetrasaccharide in dry basis from the substrate: summary of Table 3
Description: An aqueous solution containing 10 mM of glucose, 6-O-α-glucosylglucose (isomaltose), 6^2-O-α-glucosylmaltose (panose), 6^3-O-α-glucosylmaltotriose (isomaltosylmaltose), 6^4-O-α-glucosylmaltotetraose, or 6^5-O-α-glucosylmaltopentaose was prepared as substrate solution. To each of the above substrate solution was added two units/mM-substrate of the purified α-isomaltosyl-transferring enzyme specimen obtained in Experiment 1-2 and incubated at 30° C. and at pH 6.0 for 12 hours. After deionizing by conventional method, the resulting reaction solutions were measured for saccharide composition on HPLC using “MCI GEL CK04SS”, a column commercialized by Mitsubishi Chemical Industries, Ltd., Tokyo, Japan, at a column temperature of 80° C. and a flow rate of 0.4 ml/min of water, and using a detector “RI-8012”, a differential refractometer commercialized by Tosho Corporation, Tokyo, Japan.

[2] = tested on: α-isomaltosyl-transferring enzyme; test: Action of the purified N75 enzyme on saccharide substrates (saccharide composition by HPLC); format: biochemical, Bacillus globisporus N75; details: for yield of cyclotetrasaccharide in dry basis from the substrate: summary of Table 6
Description: An aqueous solution containing 10 mM of glucose, 6-O-α-glucosylglucose (isomaltose), 6^2-O-α-glucosylmaltose (panose), 6^3-O-α-glucosylmaltotriose (isomaltosylmaltose), 6^4-O-αglucosylmaltotetraose, or 6^5-O-α-glucosylmaltopentaose was prepared as substrate solution. To each of the above substrate solutions was added two units/mM-substrate of the purified α-isomaltosyl-transferring enzyme specimen obtained in Experiment 3-2 and incubated at 30° C. and at pH 6.0 for 12 hours. After deionizing by conventional method, the resulting reaction solutions were measured for saccharide composition on HPLC, disclosed in Experiment 2-1.

[3] = tested on: Bacillus globisporus C11; test: Utilization of carbon source and acid formation, strain C11; format: cell-based; set-up: key: The symbol “+” means yes or positive; details: carbon source
Description: (§1) Physiological Properties> • (1) VP-test: Negative • (2) Indole formation: Negative • (3) Gas formation from nitric acid: Positive • (4) Hydrolysis of starch: Positive • (5) Formation of pigment: Forming no soluble pigment • (6) Urease: Positive • (7) Oxidase: Positive • (8) Catalase: Positive • (9) Growth conditions: Growing at a pH of 5.5–9.0 and a temperature of 10–35° C. • (10) Oxygen requirement: Aerobic • (11) Utilization of carbon source and acid formation

[4] = tested on: Bacillus globisporus N75; test: Utilization of carbon source and acid formation, strain N75; format: cell-based; set-up: key: The symbol “+” means yes or positive; details: carbon source
Description: as §1

[5] = Optimum temperature of the enzyme activity; format: biochemical; details: incubated for 30 min, pH 6.0
Description: The activity of α-isomaltosyl-transferring enzyme was measured by the following assay: A substrate solution was prepared by dissolving panose in 100 mM acetate buffer (pH 6.0) to give a concentration of 2% (w/v). A reaction mixture was prepared by mixing 0.5 ml of the substrate solution and 0.5 ml of an enzyme solution, and incubated at 35° C. for 30 min. After stopping the reaction by boiling for 10 min, the amount of glucose formed in the reaction mixture was determined by the glucose oxidase-peroxidase method. One unit of α-isomaltosyl-transferring activity was defined as the amount of the enzyme that forms one μmole of glucose per minute under the above conditions.
A purified specimen of polypeptide having α-isomaltosyl-transferring activity, obtained by the method in Experiment 3-2, was acted on the substrate in 20 mM acetate buffer (pH6.0) at various temperatures for 30 min, according to the assay method of α-isomaltosyl-transferring enzyme disclosed in Experiment 1-1.

[6] = Thermal stability of the polypeptide; format: physicochemical; details: 20 mM acetate buffer (pH 6.0), 60 min
Description: A purified specimen of polypeptide having α-isomaltosyl-transferring activity, obtained by the method in Experiment 3-2, was incubated in 20 mM acetate buffer (pH6.0) at various temperatures for 60 min according to the assay method of α-isomaltosyl-transferring enzyme disclosed in Experiment 1-1.

[7] = C11 enzyme 2 units/mM-substrate, 10 mM substrate, 30° C., pH 6.0, 12 hours
[8] = N75 enzyme 2 units/mM-substrate, 10 mM substrate, 30° C., pH 6.0, 12 hours

| Molecule | Content of Cyclotetrasaccharide in the reaction mixture [1, 7] | Content of Isomaltose in the reaction mixture [1, 7] | Content of others in the reaction mixture [1, 7] | Content of the substrate itself (remaining) in the reaction mixture [1, 7] | yield of cyclotetrasaccharide in dry basis from the substrate ([1]; C11 enzyme) | Content of Cyclotetrasaccharide in the reaction mixture [2, 8] | Content of Isomaltose in the reaction mixture [2, 8] | Content of others in the reaction mixture [2, 8] | Content of the substrate itself (remaining) in the reaction mixture [2, 8] | yield of cyclotetrasaccharide in dry basis from the substrate ([2]; N75 enzyme) | Acid formation [3] | Utilization [3] | Acid formation [4] | Utilization [4] | also measured |
| --- | --- | --- | --- | --- | --- | --- | --- | --- | --- | --- | --- | --- | --- | --- | --- |
| OC[C@H]1O[C@H](OC[C@H]2O[C@H](O[C@H]3[C@H](O)[C@@H](O)[C@@H](O[C@H]4[C@H](O)[C@@H](O)[C@@H](O[C@H]5[C@H](O)[C@@H](O)[C@@H](O[C@H]6[C@H](O)[C@@H](O)C(O)O[C@@H]6CO)O[C@@H]5CO)O[C@@H]4CO)O[C@@H]3CO)[C@H](O)[C@@H](O)[C@@H]2O)[C@H](O)[C@@H](O)[C@@H]1O (stereo partly drawn) [6^5-O-α-Glucosylmaltopentaose, 6^5-O-α-glucosylmaltopentaose] | 18.2% | 1.6% | 9.4% | 4.3% | 18.2% | 18.7% | 1.4% | 9.1% | 4.2% | 18.7% | – | – | – | – | Content of Maltotetraose in the reaction mixture [1, 7]: 66.5%; Content of Maltotetraose in the reaction mixture [2, 8]: 66.6% |
| OC[C@H]1O[C@H](OC[C@H]2O[C@H](O[C@H]3[C@H](O)[C@@H](O)C(O)O[C@@H]3CO)[C@H](O)[C@@H](O)[C@@H]2O)[C@H](O)[C@@H](O)[C@@H]1O (stereo partly drawn) [6^2-O-α-Glucosylmaltose, 6^2-O-α-glucosylmaltose] | 43.5% | 2.1% | 11.0% | 4.6% | 43.5% | 43.2% | 2.0% | 9.7% | 4.4% | 43.2% | – | – | – | – | Content of Glucose in the reaction mixture [1, 7]: 32.2%; Content of Isomaltosylpanose in the reaction mixture [1, 7]: 4.8%; Content of Isomaltosypanoside in the reaction mixture [1, 7]: 1.8%; Content of Glucose in the reaction mixture [2, 8]: 31.8%; Content of Isomaltosylpanose in the reaction mixture [2, 8]: 6.5%; Content of Isomaltosypanoside in the reaction mixture [2, 8]: 2.4% |
| OC[C@H]1O[C@@](CO)(O[C@H]2O[C@H](CO)[C@@H](O)[C@H](O)[C@H]2O)[C@@H](O)[C@@H]1O [Sucrose] | – | – | – | – | – | – | – | – | – | – | + | + | + | + | – |
| OCC(O)CO [Glycerol] | – | – | – | – | – | – | – | – | – | – | + | + | + | + | – |
| OC[C@H]1O[C@H](OC[C@H]2O[C@H](O[C@H]3[C@H](O)[C@@H](O)[C@@H](O[C@H]4[C@H](O)[C@@H](O)[C@@H](O[C@H]5[C@H](O)[C@@H](O)C(O)O[C@@H]5CO)O[C@@H]4CO)O[C@@H]3CO)[C@H](O)[C@@H](O)[C@@H]2O)[C@H](O)[C@@H](O)[C@@H]1O (stereo partly drawn) [6^4-O-α-Glucosylmaltotetraose, 6^4-O-α-glucosylmaltotetraose] | 25.6% | 1.9% | 8.4% | 3.4% | 25.6% | 25.8% | 1.5% | 8.6% | 3.2% | 25.8% | – | – | – | – | Content of Maltotriose in the reaction mixture [1, 7]: 60.7%; Content of Maltotriose in the reaction mixture [2, 8]: 60.9% |
| O=C[C@H](O)[C@@H](O)[C@H](O)[C@H](O)CO[C@H]1O[C@H](CO)[C@@H](O)[C@H](O)[C@H]1O [6-O-α-Glucosylglucose, 6-O-α-glucosylglucose] | – | – | – | 100% | – | – | – | – | 100% | – | – | – | – | – | product formation from the substrate ([1]; C11 enzyme): No product was detected; product formation from the substrate ([2]; N75 enzyme): No product was detected |
| OC[C@H]1O[C@H](OC[C@H]2O[C@H](O[C@H]3[C@H](O)[C@@H](O)[C@@H](O[C@H]4[C@H](O)[C@@H](O)C(O)O[C@@H]4CO)O[C@@H]3CO)[C@H](O)[C@@H](O)[C@@H]2O)[C@H](O)[C@@H](O)[C@@H]1O (stereo partly drawn) [6^3-O-α-Glucosylmaltotriose, 6^3-O-α-glucosylmaltotriose] | 30.8% | 2.0% | 12.4% | 4.2% | 30.8% | 30.9% | 1.9% | 12.4% | 4.5% | 30.9% | – | – | – | – | Content of Maltose in the reaction mixture [1, 7]: 50.6%; Content of Maltose in the reaction mixture [2, 8]: 50.3% |
| OC[C@H]1O[C@@H](O[C@H]2[C@H](O)[C@@H](O)C(O)O[C@@H]2CO)[C@H](O)[C@@H](O)[C@H]1O (stereo partly shown) [Lactose] | – | – | – | – | – | – | – | – | – | – | + | + | + | + | – |
| polypeptide having α-isomaltosyl-transferring enzyme activity from Bacillus globisporus C11: purified α-isomaltosyl-transferring enzyme from Bacillus globisporus C11 (FERM BP-7144), contains the … (protein, listed as Bacillus globisporus) IDGVYHAPYGIDDLYEIQATERSPRDPVAGDTVYIKITTWPIESGQTAWVTWTKNGVNQAAVGAAFKYNSGNNTYWEANLGTFAKGDVISYTVHGNKDGANEKVIGPFTFTVTGWESVSSISSITDNTNRVVLNAVPNTGTLKPKINLSFTADDVLRVQVSPTGTGTLSSGLSNYTVSDTASTTWLTTSKLKVKVDKNPFKLSVYKPDGTTLIARQYDSTTNRNIAWLTNGSTIIDKVEDHFYSPASEEFFGFGEHYNNFRKRGNDVDTYVFNQYKNQNDRTYMAIPFMLNSSGYGIFVNSTYYSKFRLATERTDMFSFTADTGGSAASMLDYYFIYGNDLKNVVSNYANITGKPTALPKWAFGLWMSANEWDRQTKVNTAINNANSNNIPATAVVLEQWSDENTFYIFNDATYTPKTGSAAHAYTDFTFPTSGRWTDPKAMADNVHNNGMKLVLWQVPIQKWTSTPYTQKDNDEAYMTAQNYAVGNGSGGQYRIPSGQWFENSLLLDFTNTAAKNWWMSKRAYLFDGVGIDGFKTDGGEMVWGRSNTFSNGKKGNEMRNQYPNEYVKAYNEYARSKKADAVSFSRSGTQGAQANQIFWSGDQESTFGAFQQAVNAGLTASMSGVPYWSWDMAGFTGTYPTAELYKRATEMAAFAPVMQFHSESNGSSGINEERSPWNAQARTGDNTIISHFAKYTNTRMNLLPYIYSEAKMASDTGVPMMRAMALEYPKDTNTYGLTQQYMFGGNLLIAPVMNQGETNKSIYLPQGDWIDFWFGAQRPGGRTISYTAGIDDLPVFVKFGSILPMNLNAQYQVGGTIGNSLTSYTNLAFRIYPLGTTTYDWNDDIGGSVKTITSTEQYGLNKETVTVPAINSTKTLQVFTTKPSSVTVGGSVMTEYSTLTALTGASTGWYYDTVQKFTYVKLGSSASAQSVVLNGVNKVEYEAEFGVQSGVSTNTNHAGYTGTGFVDGFETLGDNVAFDVSVKAAGTYTMKVRYSSGAGNGSRAIYVNNTKVTDLALPQTTSWDTWGTATFSVSLSTGLNTVKVSYDGTSSLGINFDNIAIVEQ | – | – | – | – | – | – | – | – | – | – | – | – | – | – | optimum temperature [5]: about 50 °C; thermal stability [6]: up to 40 °C |
